From US8614201B2 (Janssen Pharmaceutica NV, priority 2009, dated 2013)

Target: Human TRPA1 (Homo sapiens, UniProt O75762)
Experiment: Assay 1: In vitro cellular testing of TRPA1 modulation (CHO-TREx, Fluo-3 calcium fluorescence, AITC agonist)
Type: cell-based
Set-up: expressed in transfected cells; host or cells: CHO-TREx cells (Invitrogen), vector pcDNA4/TO
Conditions: CHO-TREx cells expressing human TRPA1; Fluo-3 fluorescence (FLIPR/Tetra); agonist 15 μM allyl isothiocyanate (AITC); 30 minute antagonist incubation
In short: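 Tetracycline-induced CHO-TREx cells stably expressing human TRPA1, loaded with 4 μM Fluo-3 AM, preincubated 30 min with compound (serial dilution typically from 10 μM, three-fold steps) in HEPES saline pH 7.4. Fluorescence change over 3 min after 15 μM AITC; IC50 from Hill fit versus no-antagonist and 10 μM ruthenium red controls.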

Sequence of Human TRPA1 (O75762 whole entry): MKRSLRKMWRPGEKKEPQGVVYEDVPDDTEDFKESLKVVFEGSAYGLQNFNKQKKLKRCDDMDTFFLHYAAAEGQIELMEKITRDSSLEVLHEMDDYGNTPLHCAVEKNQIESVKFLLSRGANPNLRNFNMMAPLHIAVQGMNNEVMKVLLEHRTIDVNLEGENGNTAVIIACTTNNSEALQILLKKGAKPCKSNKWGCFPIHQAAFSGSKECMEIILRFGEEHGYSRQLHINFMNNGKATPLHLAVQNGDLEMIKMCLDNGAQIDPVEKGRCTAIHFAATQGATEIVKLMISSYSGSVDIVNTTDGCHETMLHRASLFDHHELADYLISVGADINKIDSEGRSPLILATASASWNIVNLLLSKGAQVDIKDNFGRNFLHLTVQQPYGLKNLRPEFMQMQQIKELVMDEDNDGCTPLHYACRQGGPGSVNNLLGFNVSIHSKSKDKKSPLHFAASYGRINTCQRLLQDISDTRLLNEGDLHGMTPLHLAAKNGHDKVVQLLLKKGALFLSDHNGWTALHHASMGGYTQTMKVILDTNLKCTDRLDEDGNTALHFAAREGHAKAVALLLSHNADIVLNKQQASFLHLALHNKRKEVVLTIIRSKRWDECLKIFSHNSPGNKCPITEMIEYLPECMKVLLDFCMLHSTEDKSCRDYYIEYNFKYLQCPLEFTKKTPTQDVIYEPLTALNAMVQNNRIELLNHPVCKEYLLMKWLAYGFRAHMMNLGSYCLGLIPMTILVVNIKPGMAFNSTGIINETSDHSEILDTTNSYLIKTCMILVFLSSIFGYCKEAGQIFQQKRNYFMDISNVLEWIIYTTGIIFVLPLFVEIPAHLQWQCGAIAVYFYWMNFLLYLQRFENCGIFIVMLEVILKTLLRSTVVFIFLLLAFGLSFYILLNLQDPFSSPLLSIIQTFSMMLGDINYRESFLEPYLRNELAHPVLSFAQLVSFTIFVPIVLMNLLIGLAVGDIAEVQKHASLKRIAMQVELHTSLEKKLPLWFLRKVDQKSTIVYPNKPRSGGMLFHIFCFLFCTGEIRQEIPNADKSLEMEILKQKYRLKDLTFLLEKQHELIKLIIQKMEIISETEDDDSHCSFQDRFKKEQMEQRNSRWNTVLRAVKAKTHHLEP

IC50 | Compound
18 nM | O=C(NCc1cc(-c2ccc(C(F)(F)F)cc2)nc(N2CCN(Cc3ccccc3)CC2)c1)[C@@H]1CCCN1S(=O)(=O)c1ccc(Cl)s1 [Example 367, N-({2-(4-Benzylpiperazin-1-yl)-6-[4-(trifluoromethyl)phenyl]pyridin-4-yl}methyl)-1-[(5-chlorothiophen-2-yl)sulfonyl]-L-prolinamide]
418 nM | O=C(NCc1cc(-c2ccc(C(F)(F)F)cc2)nc(N2CCN(Cc3ccccc3)CC2)c1)[C@@H]1C=CCN1S(=O)(=O)c1ccc(Cl)s1 [Example 368, (2S)—N-({2-(4-Benzylpiperazin-1-yl)-6-[4-(trifluoromethyl)phenyl]pyridin-4-yl}methyl)-1-[(5-chlorothiophen-2-yl)sulfonyl]-2,5-dihydro-1H-pyrrole-2-carboxamide]
79 nM | CC(C)CN1CCN(c2cc(CNC(=O)[C@@H]3CCCN3S(=O)(=O)c3ccc(Cl)s3)cc(-c3ccc(C(F)(F)F)cc3)n2)CC1 [Example 369, 1-[(5-Chlorothiophen-2-yl)sulfonyl]-N-({2-[4-(2-methylpropyl)piperazin-1-yl]-6-[4-(trifluoromethyl)phenyl]pyridin-4-yl}methyl)-L-prolinamide]
115 nM | CC(C)CN1CCN(c2cc(CNC(=O)[C@@H]3CCCN3S(=O)(=O)c3ccc(F)cc3)cc(-c3ccc(C(F)(F)F)cc3)n2)CC1 [Example 370, 1-[(4-Fluorophenyl)sulfonyl]-N-({2-[4-(2-methylpropyl)piperazin-1-yl]-6-[4-(trifluoromethyl)phenyl]pyridin-4-yl}methyl)-L-prolinamide]
2060 nM | O=C(NCc1cc(NCc2cccnc2)nc(-c2ccc(C(F)(F)F)cc2)c1)[C@@H]1CCCN1S(=O)(=O)c1ccc(Cl)s1 [Example 371, 1-[(5-Chlorothiophen-2-yl)sulfonyl]-N-({2-[(pyridin-3-ylmethyl)amino]-6-[4-(trifluoromethyl)phenyl]pyridin-4-yl}methyl)-L-prolinamide]
1610 nM | CNc1cc(CNC(=O)[C@@H]2C=CCN2S(=O)(=O)c2ccc(F)cc2)cc(-c2ccc(C(F)(F)F)cc2)n1 [Example 372, (2S)-1-[(4-Fluorophenyl)sulfonyl]-N-({2-(methylamino)-6-[4-(trifluoromethyl)phenyl]pyridin-4-yl}methyl)-2,5-dihydro-1H-pyrrole-2-carboxamide]
43 nM | O=C(NCc1cc(-c2ccc(C(F)(F)F)cc2)nc(N2CCN(Cc3ccccc3)CC2)c1)[C@@H]1CCCN1S(=O)(=O)c1ccc(F)cc1 [Example 373, N-({2-(4-Benzylpiperazin-1-yl)-6-[4-(trifluoromethyl)phenyl]pyridin-4-yl}methyl)-1-[(4-fluorophenyl)sulfonyl]-L-prolinamide]
2090 nM | O=C(NCc1cc(NCc2ccccn2)nc(-c2ccc(C(F)(F)F)cc2)c1)[C@@H]1CC(F)(F)CN1S(=O)(=O)c1ccc(F)cc1 [Example 374, 4,4-Difluoro-1-[(4-fluorophenyl)sulfonyl]-N-({2-[(pyridin-2-ylmethyl)amino]-6-[4-(trifluoromethyl)phenyl]pyridin-4-yl}methyl)-L-prolinamide]
1940 nM | O=C(NCc1cc(-c2ccc(C(F)(F)F)cc2)nc(N2CCN(Cc3ccccn3)CC2)c1)[C@@H]1CC(F)(F)CN1S(=O)(=O)c1ccc(Cl)s1 [Example 375, 1-[(5-Chlorothiophen-2-yl)sulfonyl]-4,4-difluoro-N-({2-[4-(pyridin-2-ylmethyl)piperazin-1-yl]-6-[4-(trifluoromethyl)phenyl]pyridin-4-yl}methyl)-L-prolinamide]
241 nM | CN(C)c1cc(CNC(=O)[C@@H]2CC(F)(F)CN2S(=O)(=O)c2ccc(Cl)s2)cc(-c2ccc(C(F)(F)F)cc2)n1 [Example 376, 1-[(5-Chlorothiophen-2-yl)sulfonyl]-N-({2-(dimethylamino)-6-[4-(trifluoromethyl)phenyl]pyridin-4-yl}methyl)-4,4-difluoro-L-prolinamide]
4710 nM | O=C(NCc1cc(-c2ccc(C(F)(F)F)cc2)nc(N2CCN(Cc3ccccc3)CC2)c1)[C@@H]1CC(F)(F)CN1S(=O)(=O)c1ccc(Cl)s1 [Example 377, N-({2-(4-Benzylpiperazin-1-yl)-6-[4-(trifluoromethyl)phenyl]pyridin-4-yl}methyl)-1-[(5-chlorothiophen-2-yl)sulfonyl]-4,4-difluoro-L-prolinamide]
380 nM | CNc1cc(CNC(=O)[C@@H]2C=CCN2S(=O)(=O)c2ccc(Cl)s2)cc(-c2ccc(C(F)(F)F)cc2)n1 [Example 379, (2S)-1-[(5-Chlorothiophen-2-yl)sulfonyl]-N-({2-(methylamino)-6-[4-(trifluoromethyl)phenyl]pyridin-4-yl}methyl)-2,5-dihydro-1H-pyrrole-2-carboxamide]
523 nM | O=C(NCc1cc(NCc2ccccn2)nc(-c2ccc(C(F)(F)F)cc2)c1)[C@@H]1C=CCN1S(=O)(=O)c1ccc(F)cc1 [Example 380, (2S)-1-[(4-Fluorophenyl)sulfonyl]-N-({2-[(pyridin-2-ylmethyl)amino]-6-[4-(trifluoromethyl)phenyl]pyridin-4-yl}methyl)-2,5-dihydro-1H-pyrrole-2-carboxamide]
729 nM | O=C(NCc1cc(-c2ccc(C(F)(F)F)cc2)nc(N2CCN(Cc3ccncc3)CC2)c1)[C@@H]1CC(F)(F)CN1S(=O)(=O)c1ccc(Cl)s1 [Example 381, 1-[(5-Chlorothiophen-2-yl)sulfonyl]-4,4-difluoro-N-({2-[4-(pyridin-4-ylmethyl)piperazin-1-yl]-6-[4-(trifluoromethyl)phenyl]pyridin-4-yl}methyl)-L-prolinamide]
5090 nM | O=C(NCc1cc(NCc2ccccn2)nc(-c2ccc(C(F)(F)F)cc2)c1)[C@@H]1CC(F)(F)CN1S(=O)(=O)c1ccc(Cl)s1 [Example 382, 1-[(5-Chlorothiophen-2-yl)sulfonyl]-4,4-difluoro-N-({2-[(pyridin-2-ylmethyl)amino]-6-[4-(trifluoromethyl)phenyl]pyridin-4-yl}methyl)-L-prolinamide]
488 nM | CC(C)CN1CCN(c2cc(CNC(=O)[C@@H]3CC(F)(F)CN3S(=O)(=O)c3ccc(Cl)s3)cc(-c3ccc(C(F)(F)F)cc3)n2)CC1 [Example 383, 1-[(5-Chlorothiophen-2-yl)sulfonyl]-4,4-difluoro-N-({2-[4-(2-methylpropyl)piperazin-1-yl]-6-[4-(trifluoromethyl)phenyl]pyridin-4-yl}methyl)-L-prolinamide]
2220 nM | CNc1cc(CNC(=O)[C@@H]2CC(F)(F)CN2S(=O)(=O)c2ccc(Cl)s2)cc(-c2ccc(C(F)(F)F)cc2)n1 [Example 384, 1-[(5-Chlorothiophen-2-yl)sulfonyl]-4,4-difluoro-N-({2-(methylamino)-6-[4-(trifluoromethyl)phenyl]pyridin-4-yl}methyl)-L-prolinamide]
978 nM | O=C(NCc1cc(NCc2ccncc2)nc(-c2ccc(C(F)(F)F)cc2)c1)[C@@H]1CCCN1S(=O)(=O)c1ccc(F)cc1 [Example 385, 1-[(4-Fluorophenyl)sulfonyl]-N-({2-[(pyridin-4-ylmethyl)amino]-6-[4-(trifluoromethyl)phenyl]pyridin-4-yl}methyl)-L-prolinamide]
311 nM | CC(C)CN1CCN(c2cc(CNC(=O)[C@@H]3CC(F)(F)CN3S(=O)(=O)c3ccc(F)cc3)cc(-c3ccc(C(F)(F)F)cc3)n2)CC1 [Example 386, 4,4-Difluoro-1-[(4-fluorophenyl)sulfonyl]-N-({2-[4-(2-methylpropyl)piperazin-1-yl]-6-[4-(trifluoromethyl)phenyl]pyridin-4-yl}methyl)-L-prolinamide]
3050 nM | O=C(NCc1cc(-c2ccc(C(F)(F)F)cc2)nc(N2CCN(Cc3ccccn3)CC2)c1)[C@@H]1CC(F)(F)CN1S(=O)(=O)c1ccc(F)cc1 [Example 387, 4,4-Difluoro-1-[(4-fluorophenyl)sulfonyl]-N-({2-[4-(pyridin-2-ylmethyl)piperazin-1-yl]-6-[4-(trifluoromethyl)phenyl]pyridin-4-yl}methyl)-L-prolinamide]
3520 nM | O=C(NCc1cc(-c2ccc(C(F)(F)F)cc2)nc(N2CCN(Cc3ccccc3)CC2)c1)[C@@H]1CC(F)(F)CN1S(=O)(=O)c1ccc(F)cc1 [Example 388, N-({2-(4-Benzylpiperazin-1-yl)-6-[4-(trifluoromethyl)phenyl]pyridin-4-yl}methyl)-4,4-difluoro-1-[(4-fluorophenyl)sulfonyl]-L-prolinamide]
95 nM | CC(C)CN1CCN(c2cc(CNC(=O)[C@@H]3C=CCN3S(=O)(=O)c3ccc(Cl)s3)cc(-c3ccc(C(F)(F)F)cc3)n2)CC1 [Example 389, (2S)-1-[(5-Chlorothiophen-2-yl)sulfonyl]-N-({2-[4-(2-methylpropyl)piperazin-1-yl]-6-[4-(trifluoromethyl)phenyl]pyridin-4-yl}methyl)-2,5-dihydro-1H-pyrrole-2-carboxamide]
382 nM | CC(C)CN1CCN(c2cc(CNC(=O)[C@@H]3C=CCN3S(=O)(=O)c3ccc(F)cc3)cc(-c3ccc(C(F)(F)F)cc3)n2)CC1 [Example 390, (2S)-1-[(4-Fluorophenyl)sulfonyl]-N-({2-[4-(2-methylpropyl)piperazin-1-yl]-6-[4-(trifluoromethyl)phenyl]pyridin-4-yl}methyl)-2,5-dihydro-1H-pyrrole-2-carboxamide]
797 nM | O=C(NCc1cc(NCc2ccncc2)nc(-c2ccc(C(F)(F)F)cc2)c1)[C@@H]1C=CCN1S(=O)(=O)c1ccc(Cl)s1 [Example 391, (2S)-1-[(5-Chlorothiophen-2-yl)sulfonyl]-N-({2-[(pyridin-4-ylmethyl)amino]-6-[4-(trifluoromethyl)phenyl]pyridin-4-yl}methyl)-2,5-dihydro-1H-pyrrole-2-carboxamide]
